How the values were obtained:
[1] = tested on: Trypanosoma brucei brucei; experiment: MMV: Inhibition of Trypanosoma brucei brucei (Squib 427) (HAT in vitro).; format: functional, organism-based
[2] = tested on: Plasmodium falciparum; experiment: MMV: Inhibition of Plasmodium falciparum K1 (EC50).; format: functional, organism-based
[3] = tested on: Leishmania infantum; experiment: MMV: Inhibition of Leishmania infantum (MHOM/MA/BE/67) in vitro.; format: functional, organism-based
[4] = tested on: Trypanosoma brucei rhodesiense; experiment: MMV: Inhibition of Trypanosoma brucei rhodesiense (STIB 900) (HAT in vitro).; format: functional, organism-based
[5] = tested on: Plasmodium falciparum; experiment: MMV: Inhibition of Plasmodium falciparum 3D7 at 5uM compound concentration.; format: functional
[6] = MMV: Cytotoxicity against human fibroblasts (MRC-5) cells.; conditions: MRC-5 cells (human fibroblasts)
[7] = tested on: Plasmodium falciparum; experiment: MMV: Inhibition of Plasmodium falciparum 3D7 (EC50).; format: functional, organism-based
[8] = tested on: Trypanosoma cruzi; experiment: MMV: Inhibition of Trypanosoma cruzi (Tulahuen C4 LacZ) (Chagas in vitro).; format: functional, organism-based

SMILES	IC50 [1] [µM]	EC50 [2] [µM]	IC50 [3] [µM]	IC50 [4] [µM]	inhibition at 5 µM [5] [%]	IC50 [6] [µM]	EC50 [7] [µM]	IC50 [8] [µM]
CCCCCC(=O)N1c2ccccc2N=C2CC(c3ccc(OC)c(OC)c3)CC(O)=C2C1c1ccc(C(F)(F)F)cc1 (stereo not drawn)	4.06	0.288	25.4	1.69	100	> 32	0.237	12.1
FC(F)(F)c1cccc(Nc2nc3ccccc3nc2Nc2cccc(C(F)(F)F)c2)c1	3.78	0.501	4.06	4	99	9.31	0.313	3.75
Cc1ccc(C(=O)c2oc3ccc4c(C)cc(=O)oc4c3c2C)cc1	> 32	1.04	> 32	> 32	96	21.2	0.906	> 32
CCC(O)c1ccc(Br)cc1NC(=O)c1cccc(Cl)c1 (stereo not drawn)	15.3	0.419	> 32	4.54	97	> 32	0.64	> 32
CN(C)CCCNCc1ccc(-c2ccc(F)c(Cl)c2)o1	0.185	0.763	4.15	< 0.125	96	17.3	0.876	3.85
COc1cccc(NC(=O)Cn2c(C)c(C#N)c3ccccc32)c1	> 32	1.48	> 32	20.2	95	> 32	1.09	> 32
CC(C)(C)c1ccc(O)c(CNC2CCCCC2)c1	3.78	0.0458	16	4	96	> 32	0.161	21.2
CC1CN(C(=O)c2sc3ccccc3c2Cl)CC(C)O1 (stereo not drawn)	> 32	0.195	> 32	> 32	95	> 32	0.0255	> 32
CCOc1cc(Cl)c(C(C)NC(=O)c2cccc(OC)c2)cc1OCC (stereo not drawn)	> 32	1.36	> 32	21	98	6.59	0.728	18.7
CC(=O)Nc1nnc(SCc2c(C)cc(C(C)(C)C)cc2C)s1	> 32	0.843	> 32	> 32	96	> 32	0.871	> 32
CCCCOC(=O)c1ccc(Nc2cc(C)nc3ccc(OC)cc23)cc1	3.94	2.14	4.76	3.51	99	14.3	0.584	3.67
CC(NCc1ccccc1)c1cc(Cl)ccc1O (stereo not drawn)	> 32	0.243	> 32	16	95	> 32	0.603	> 32
O=c1cc(NC2CCN(CCCc3ccccc3)CC2)c2cc(Cl)ccc2o1	15	0.532	10.1	4.09	97	> 32	0.846	15.6
COc1ccc(C=C2SC(Nc3ccc(F)cc3)=NC2=O)c(OC)c1	> 32	0.825	> 32	> 32	92	> 32	0.591	> 32
CCn1c(CN2CCN(Cc3ccccc3)CC2)nc2cc(NC(=O)c3cccs3)ccc21	> 32	0.413	22.6	15.5	97	> 32	0.512	13
COc1ccccc1NC1=C(N2CCCCC2)C(=O)c2ccccc2C1=O	1.01	0.01	3.01	0.315	98	9.88	0.0053	< 0.125
Oc1c(C(Nc2ccccn2)c2cccc(Oc3ccccc3)c2)ccc2cccnc12 (stereo not drawn)	1.01	1.07	1	0.972	97	3.89	1.01	1.05
CCOC(=O)c1cn(CC)c2cc(N3CCCCC3)c(F)cc2c1=O	> 32	0.259	> 32	> 32	100	> 32	0.119	> 32
Oc1ccccc1CNCC12CC3CC(CC(C3)C1)C2	15.7	0.0068	17.3	16	96	> 32	0.0226	> 32
CNCCCNc1ccnc2cc(Cl)ccc12	3.82	1	16.2	3.92	98	> 32	0.0822	16.5
COc1ccc(Br)cc1C1Nc2ccc3ccccc3c2C2=C1C(=O)CC(c1ccccc1)C2 (stereo not drawn)	4.06	0.4	> 32	1.06	95	> 32	0.18	1.12
CC1CCN(Cc2ccc(NC(=O)c3cc4ccc5cccnc5c4[nH]3)cc2)CC1	1.41	0.773	3.01	0.861	97	1.45	0.274	2.2
CCOc1ccc(-c2nonc2NC(=O)c2cccc(C)c2)cc1OCC	> 32	0.127	> 32	> 32	86	> 32	0.117	> 32
COc1ccc2c(=O)cc(C(Cl)(Cl)Cl)oc2c1	16.9	0.55	16.2	> 32	94	7.58	0.52	0.432
CC1CC2=C(CC1CNCCCN(C)C)C(C)(C)CCC2 (stereo not drawn)	< 0.125	1	3.01	< 0.125	98	4.15	1.01	1.08
Cc1c(C)n(CC(O)CNC2CCCCC2C)c2ccccc12 (stereo not drawn)	3.84	0.438	> 32	1.01	96	> 32	0.769	> 32
